Assay results as given in the OPERA property sets (Mansouri et al. 2018).

Conditions: not given

Compound | log10 Koc (L/kg) | boiling point [°C] | log10 vapour pressure (mmHg) | melting point [°C] | ready biodegradability | log10 biodegradation half-life (days) | log10 Henry constant (atm·m³/mol) | log10 Koa
Cc1cc(NC(N)=O)ccc1F | 1.75 | – | – | – | – | – | – | –
FC(F)=C(F)C(F)(F)F | – | -29.6 | 3.69 | -156 | – | – | – | –
CC#CC(=O)O | – | 203 | – | 78 | – | – | – | –
CCCC(c1ccc(O)cc1)c1ccc(O)cc1 | – | – | – | 137 | – | – | – | –
Cc1ncc([N+](=O)[O-])n1CC(C)O (stereo not drawn) | – | – | – | 76 | – | – | – | –
OCCOc1ccccc1 | – | 245 | -2.15 | 14 | – | – | – | –
Nc1ccccc1O | – | – | – | – | not readily biodegradable | – | – | –
O/N=C\c1cc[n+](COC[n+]2ccc(/C=N\O)cc2)cc1.[Cl-].[Cl-] | – | – | – | 220 | – | – | – | –
C[Si](C)(C)C#C[Si](C)(C)C | – | 134 | – | 26 | – | – | – | –
CC(=O)C(=O)CC(C)C | – | 138 | – | – | – | – | – | –
C1=CCC2CC2C1 (stereo not drawn) | – | 125 | 1.36 | – | – | – | – | –
C=C(C)C(=O)OCCCCCCCCCCCC | – | – | – | -7 | – | – | – | –
C=C(C)CCC(C)=O | – | 150 | – | – | – | – | – | –
c1ccc(C2CC2)cc1 | – | 174 | – | -31 | – | – | – | –
CCCN(CCC)c1c([N+](=O)[O-])cc(C(C)C)cc1[N+](=O)[O-] | 4 | – | -4.52 | – | – | – | – | –
CNCc1ccco1 | – | 149 | – | – | – | – | – | –
Nn1cnnc1 | – | – | – | 82.5 | – | – | – | –
CCCCCCCCCCCCCCCCCCCCCCCCCC | – | 412 | -6.33 | 56.4 | readily biodegradable | 2 | – | –
Cc1ccc2nc3c(ccc4ccccc43)c(C)c2c1 | – | – | – | 159 | – | – | – | –
CC(Oc1ccccc1)C(=O)Cl (stereo not drawn) | – | 147 | – | – | – | – | – | –
CC1(C)CC=CC1 | – | 88 | – | – | – | – | – | –
IC1CCCC1 | – | 166 | – | – | – | – | – | –
CC(C)=CC(C)C | – | 83.4 | – | -128 | – | – | – | –
Clc1ccccc1Cl | 2.56 | 180 | 0.134 | -16.7 | not readily biodegradable | – | -2.72 | 4.36
Cc1ccc2ccc3ccc(C)cc3c2c1 | – | – | – | 145 | – | – | – | –
Cc1cc(C)cc(C)c1 | 2.82 | 165 | 0.395 | -44.7 | not readily biodegradable | 0.477 | -2.06 | –
NC(N)=Nc1nc(CSCCC(N)=NS(N)(=O)=O)cs1 | – | – | – | 164 | – | – | – | –

Compound | log10 Koc (L/kg) | boiling point [°C] | log10 vapour pressure (mmHg) | melting point [°C] | ready biodegradability | log10 biodegradation half-life (days) | log10 Henry constant (atm·m³/mol) | log10 Koa
CCOC(=O)c1cccc(O)c1 | – | – | – | 74 | readily biodegradable | – | – | –
CC(=O)c1ccccn1 | – | 192 | – | – | – | – | – | –
COc1ccccc1Br | – | 216 | – | 2.5 | – | – | – | –
COc1cccc(NC(=O)N(C)C)c1 | 1.72 | – | – | – | – | – | – | –
Cn1ccc(=O)n(C)c1=O | – | – | -2.26 | 120 | – | – | – | –
Cc1ccc(N=Nc2ccccc2)cc1 | – | 312 | – | 71.5 | – | – | – | –
O=C1c2c(O)ccc(Nc3ccccc3)c2C(=O)c2c([N+](=O)[O-])ccc(O)c21 | – | – | – | – | not readily biodegradable | – | – | –
CCc1nccnc1CC | – | 181 | – | – | – | – | – | –
Cc1cc(C)c(Br)c(C)c1Br | – | 285 | – | 65.5 | – | – | – | –
COc1ccc2c(c1)[nH]c1c(C)nccc12 | – | – | – | 273 | – | – | – | –
Clc1cc2c(oc3c(Cl)cccc32)c(Cl)c1Cl | – | – | -7.4 | 190 | – | – | – | –
NS(=O)(=O)c1ccc(SCCCO)cc1 | – | – | – | 117 | – | – | – | –
CC(=O)C=CC=Cc1ccccc1 | – | – | – | 68 | – | – | – | –
Clc1ccc(Cl)c(Oc2ccccc2)c1 | – | – | -3 | – | – | – | – | –
CCOC(=O)C1CC(=O)C(=C(O)C2CC2)C(=O)C1 (stereo not drawn) | – | – | -4.79 | 36 | – | – | – | –
CO[C@@H]1C=C[C@@]23c4cc5c(cc4CO[C@]2(O)CN(C)[C@H]3C1)OCO5 | – | – | – | 210 | – | – | – | –
CN(C)c1ccc(N)cc1 | – | 263 | – | 53 | – | – | – | –
Nc1cc2ccccc2cc1C(=O)O | – | – | – | 216 | – | – | – | –
O=C1OC(=O)c2ccccc21 | 1.56 | 295 | -3.29 | 131 | readily biodegradable | – | – | –
ClCC(Cl)Cl | 1.89 | 114 | 1.36 | -36.6 | not readily biodegradable | – | -3.08 | 3.4
CC=Cc1ccccc1O | – | 220 | – | -6 | – | – | – | –
CCC/C=C/CCC | – | 126 | 1.25 | -104 | – | – | – | –
N#CCc1ccc(N)cc1 | – | 312 | – | 46 | – | – | – | –
C1CNCCNC1 | – | 169 | – | 43.5 | – | – | – | –
Cc1ccc(C(=O)O)c(O)c1 | – | – | – | 177 | – | – | – | –
CC(C)[C@H]1CC[C@]2(C)C[C@H](O)[C@]3(C)CC[C@]12O3 | – | – | – | 114 | – | – | – | –

Same assay, conditions: fish

Compound | log10 BCF | log10 biotransformation half-life (days)
Brc1cc(Br)c(Oc2c(Br)c(Br)c(Br)c(Br)c2Br)c(Br)c1Br | 5.75 | –
Clc1ccc(-c2c(Cl)cc(Cl)c(Cl)c2Cl)c(Cl)c1Cl | – | 2.52
Cc1ccccc1 | 0.92 | –
Cc1c(Cl)c(Cl)c(C)c(Cl)c1Cl | 3.62 | 1.12
Clc1ccccc1Cl | 2.43 | 0.5
Cc1cc(C)cc(C)c1 | 2.27 | 0.4
ClCC(Cl)Cl | 0.7 | -1.01
